# Assay results as given in patent US20250051391A1, “PEPTIDE INHIBITORS AND METHODS FOR INHIBITING PROTEIN AGGREGATION IN NEURONS AND NEURODEGENERATIVE DISEASES” (THE GOVERNING COUNCIL OF THE UNIVERSITY OF TORONTO, priority 2021, published 2025).
# Tested on: HEK293 cells overexpressing human a-syn (WT)
# Assay: Cytotoxicity screen of lentiviral 7-mer peptide library, Alpha Syn (WT) cells under MG132
# Format: cell-based
# Conditions: not given
# Source text: (§1) A screening system to discover candidate peptides to perturb endogenous PPIs based on libraries of short linear interaction motifs that mediate a large fraction (˜30%) of human PPIs (10-12) was recently developed. Here, a lentiviral library of 50,549 7-mer peptide motifs (13) on a green fluorescent protein (GFP) scaffold (FIG. 1A) was used. Cells in a pooled format were infected and the amino acid sequence of each peptide served as its own barcode. By using a low multiplicity of infection followed by puromycin selection, each infected cell expressed one unique GFP-peptide. Peptides that reduced a-syn-mediated cytotoxicity or a-syn oligomers in parallel (FIG. 1A), were screened for.
# (§2) To cause cytotoxicity relevant to PD, proteostatic stress in HEK293 cells was induced by inhibiting the proteasome with MG132 and inducing the overexpression of human a-syn (WT) from idiopathic PD in one screen and the more toxic A53T mutant from familial PD in a second screen. The combination of a-syn overexpression and pharmacological proteasome inhibition led to death of most cells, with only those that expressed a protective peptide surviving. By extracting genomic DNA from the surviving cells and amplifying the peptide coding sequences, the protective peptides (FIG. 1A) were identified.
# (§3) PCR primers that included the Illumina adaptor sequences were used to amplify peptide coding sequences recovered from selection and cell sorting. Results were demultiplexed, and peptide counts were tallied. After demultiplexing, only reads with an average quality Phred score of >30 were selected, and frequencies were calculated. Finally, the reads were then normalized to the total number of peptides read for that sample population, and a scalar factor was applied. In parallel, ˜25 individual colonies were Sanger sequenced to compare to the NGS data.
# (§4) Lentiviruses were made in a 15 cm dish format by transfecting packaging cells (293T) with a three-plasmid system as previously described. Viral transduction of HEK293T cells, tet-off split luciferase a-syn cells, tet-off parent cells, and SH-SY5Y cells were performed with a multiplicity of infection of 0.3 (MOI=0.3). Infected cells were selected in puromycin-containing medium to eliminate uninfected cells and three aliquots of cells were collected for sampling of the initial (TO) cell population. Cells were treated with MG132 at concentrations of 0 μM, 10 μM, 25 μM or 50 μM. For the cell viability screen, surviving cells were collected and gDNA was extracted for identification of peptide inhibitors of cell toxicity. For the inhibition of a-syn aggregation screen, split YFP-a-syn constructs were transfected following stable expression of the peptides. Cells were sorted based on their GFP fluorescence intensities with a FACSVantage SE cell sorter (BD Bioscience).
# (§5) Genomic DNA (gDNA) from peptide expressing cells at different time-points was extracted using QIAamp DNA Blood Mini Kit. PCR amplifications of peptides from gDNA in parallel with the lentiviral plasmid library (naïve library) were performed using indexed Illumina PCR primers to incorporate both the Illumina adapter sequences and indexing sequences. Each 50 μl reaction contained 3.2 μg of template, 2×PCR buffer, 2× enhancer solution, 300 μM each dNTP, 900 nM each of Adapter A (5′-[…]-[…]-3′) (SEQ ID NO: 42) and Adapter B (5′-[…]-[…]-3′) (SEQ ID NO: 43), 1 mM MgSO4, 3.75 units of Platinum Pfx polymerase, and water to 50 μl. The PCR reaction was performed by denaturing at 94° C. for 5 minutes, followed by cycling (94° C. for 30 seconds, 65° C. for 30 seconds, 68° C. for 30 seconds)×28 cycles, 68° C. for 5 minutes, then cooling to 4° C. The resulting 244 bp product was purified by electrophoresis in 2% agarose followed by gel extraction. Peptide libraries were quantified using Quant-It assay (Invitrogen) and pooled. […]
row,Substance,Slope Norm Reads
1,"LQVGVAV [7-mer library hit, Alpha Syn screen]",0.09
2,"RAPSCHL [7-mer library hit, Alpha Syn screen]",0.15
3,"LPASMPC [7-mer library hit, Alpha Syn screen]",0.09
4,"CMVHSAG [7-mer library hit, Alpha Syn screen]",0.08
5,"GAAAGGT [7-mer library hit, Alpha Syn screen]",0.06
6,"PLPTGMG [7-mer library hit, Alpha Syn screen]",0.08
7,"DWLMVNL [7-mer library hit, Alpha Syn screen]",0.13
8,"LSGECVP [7-mer library hit, Alpha Syn screen]",0.07
9,"AAYNLCA [7-mer library hit, Alpha Syn screen]",0.07

# Same assay, conditions: normalized Illumina peptide counts, 0 uM MG132
row,Substance,Reads 0 uM MG132
1,"LQVGVAV [7-mer library hit, Alpha Syn screen]",1
2,"RAPSCHL [7-mer library hit, Alpha Syn screen]",1
3,"LPASMPC [7-mer library hit, Alpha Syn screen]",2
4,"CMVHSAG [7-mer library hit, Alpha Syn screen]",4
5,"GAAAGGT [7-mer library hit, Alpha Syn screen]",1
6,"PLPTGMG [7-mer library hit, Alpha Syn screen]",1
7,"DWLMVNL [7-mer library hit, Alpha Syn screen]",1
8,"LSGECVP [7-mer library hit, Alpha Syn screen]",3
9,"AAYNLCA [7-mer library hit, Alpha Syn screen]",1

# Same assay, conditions: normalized Illumina peptide counts, 10 µM MG132
row,Substance,Reads 10 UM MG132
1,"LQVGVAV [7-mer library hit, Alpha Syn screen]",25
2,"RAPSCHL [7-mer library hit, Alpha Syn screen]",13
3,"LPASMPC [7-mer library hit, Alpha Syn screen]",16
4,"CMVHSAG [7-mer library hit, Alpha Syn screen]",14
5,"GAAAGGT [7-mer library hit, Alpha Syn screen]",10
6,"PLPTGMG [7-mer library hit, Alpha Syn screen]",3
7,"DWLMVNL [7-mer library hit, Alpha Syn screen]",13
8,"LSGECVP [7-mer library hit, Alpha Syn screen]",28
9,"AAYNLCA [7-mer library hit, Alpha Syn screen]",14

# Same assay, conditions: normalized Illumina peptide counts, 25 µM MG132
row,Substance,Reads 25 UM MG132
1,"LQVGVAV [7-mer library hit, Alpha Syn screen]",23
2,"RAPSCHL [7-mer library hit, Alpha Syn screen]",33
3,"LPASMPC [7-mer library hit, Alpha Syn screen]",27
4,"CMVHSAG [7-mer library hit, Alpha Syn screen]",33
5,"GAAAGGT [7-mer library hit, Alpha Syn screen]",17
6,"PLPTGMG [7-mer library hit, Alpha Syn screen]",20
7,"DWLMVNL [7-mer library hit, Alpha Syn screen]",29
8,"LSGECVP [7-mer library hit, Alpha Syn screen]",28
9,"AAYNLCA [7-mer library hit, Alpha Syn screen]",19

# Tested on: HEK293 cells overexpressing A53T a-syn
# Assay: Cytotoxicity screen of lentiviral 7-mer peptide library, Alpha syn A53T cells under MG132
# Format: cell-based, human
# Conditions: not given
# Source text: as §1, §2, §3, §4, §5
row,Substance,Slope Norm Reads
1,"PAMQIDG [7-mer library hit, A53T screen]",0.96
2,"EDVNKCV [7-mer library hit, A53T screen]",0.68

# Same assay, conditions: normalized Illumina peptide counts, 0 uM MG132
row,Substance,Reads 0 uM MG132
1,"PAMQIDG [7-mer library hit, A53T screen]",32
2,"EDVNKCV [7-mer library hit, A53T screen]",6

# Same assay, conditions: normalized Illumina peptide counts, 10 µM MG132
row,Substance,Reads 10 UM MG132
1,"PAMQIDG [7-mer library hit, A53T screen]",20
2,"EDVNKCV [7-mer library hit, A53T screen]",6

# Same assay, conditions: normalized Illumina peptide counts, 25 µM MG132
row,Substance,Reads 25 UM MG132
1,"PAMQIDG [7-mer library hit, A53T screen]",53
2,"EDVNKCV [7-mer library hit, A53T screen]",13

# Same assay, conditions: normalized Illumina peptide counts, 50 µM MG132
row,Substance,Reads 50 UM MG132
1,"PAMQIDG [7-mer library hit, A53T screen]",337
2,"EDVNKCV [7-mer library hit, A53T screen]",233
